For 30 compounds, GI50 and TGI results are on record in PubChem BioAssay (NCI).

Among the test systems are T-47D breast; MDA-N; DMS 273 small cell lung; KM20L2 colon; LXFL 529 NSCLC; M19-MEL melanoma; HOP-18 NSCLC; XF 498 CNS.
What all share (test): NCI tumour cell line growth inhibition, 48 h

“And” between values parts separate entries of the source, which are not always exact repeats. Equal values may be shown once.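 Step 1: Grow cells in 96-well plates. Step 2: Expose to compound for 48 hours at 5 concentrations. Step 3: Interpolate endpoints linearly; if unreached, use highest concentration. Here, GI50 denotes the concentration required for 50% inhibition of growth. TGI: concentration producing complete growth inhibition.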 Bounds are passed on as bounds.

Consider `O=C(NC1CCN(Cc2ccccc2)CC1)c1cc(-c2cccnc2)nc2ccc(Cl)cc12`, for which, in the assay on T-47D breast, the GI50 was 3.7 µM and the TGI came to 53.1 µM.
Take `O=C(O)C1C2C=CC(O2)C1C(=O)NCc1cccnc1` (configuration not stated): the TGI with MDA-N and in the assay with T-47D breast was above 100 µM throughout.
As for `COc1cc2c(Oc3ccc(NC(=O)C4(C(=O)Nc5ccc(F)cc5)CC4)cc3F)ccnc2cc1OCCCN1CCOCC1`, in the assay on T-47D breast, the GI50 is 1.37 µM and 1.44 µM; the TGI is 3.63 µM and > 8.02 µM.
Take `Cc1ccc2c(c1)[n+](=O)c(C(=O)c1cccs1)c(C(F)(F)F)n2[O-]`: in the assay on T-47D breast, the GI50 is 1.55 µM and 0.183 µM; the TGI was 9.38 µM and 7.9 µM.
As for `CC[C@@]1(O)C(=O)OCc2c1cc1n(c2=O)Cc2cc3cc(Cl)ccc3nc2-1`, the GI50 is below 0.001 µM in the assay with DMS 273 small cell lung; 0.00997 µM and 0.0271 µM with KM20L2 colon; 0.108 µM in the assay with LXFL 529 NSCLC; 0.0167 µM and 0.0195 µM with M19-MEL melanoma; 0.0286 µM in the assay on MDA-N; 0.00335 µM with T-47D breast. In addition, the TGI is 0.0211 µM and 0.14 µM with DMS 273 small cell lung; 0.144 µM and 0.461 µM with KM20L2 colon; 2.22 µM in the assay on LXFL 529 NSCLC; 0.224 µM and 0.19 µM in the assay on M19-MEL melanoma; 0.374 µM in the assay on MDA-N; 0.167 µM in the assay on T-47D breast.
As to `Cc1cc2c(cc1Cl)SC(N(c1ccccc1Cl)S(=O)(=O)c1ccc(Br)s1)=NS2(=O)=O`, in the assay with T-47D breast, the GI50 was 4.95 µM and the TGI is 23 µM.
For the compound `CC1=C(C(=O)Nc2cccc(Cl)c2)C(c2ccccc2O)C(C(=O)Nc2cccc(Cl)c2)=C(C)N1`, the results for the TGI in the assay on KM20L2 colon, in the assay with LXFL 529 NSCLC and in the assay with M19-MEL melanoma were 37.7 µM, 39.3 µM and 40.6 µM, respectively.
Take `O=CC(OC(=O)c1ccccc1)C(OC(=O)c1ccccc1)C(COC(c1ccccc1)(c1ccccc1)c1ccccc1)OC(=O)c1ccccc1` (configuration not stated): in the assay on T-47D breast, the GI50 was 4.65 µM and the TGI amounted to 22.7 µM.
Turning to `CC(=O)OCCOCn1c2ccccc2c2c3c(c4c5ccccc5n(COCCOC(C)=O)c4c21)C(=O)N(Cc1ccccc1)C3=O`, the TGI with DMS 273 small cell lung, in the assay on KM20L2 colon, in the assay with LXFL 529 NSCLC and in the assay on M19-MEL melanoma was above 100 µM throughout.
Take `O=C(COc1ccc(/C=C2\Oc3ccc4ccccc4c3C2=O)cc1)c1ccc([N+](=O)[O-])cc1`: in the assay on T-47D breast, the GI50 was 2.85 µM and the TGI amounted to 23.8 µM.
On to `CC(=O)N[C@H](C)[C@@H](O)[C@@H](C)[C@@H]1OC(=O)/C=C/C=C(C)\C=C\[C@]2(C)C[C@@H](NS(C)(=O)=O)C=C[C@@H]2/C=C(C)/C=C/[C@H]1C`, for which, in the assay with T-47D breast, the GI50 was 0.00343 µM and 0.00506 µM; the TGI is above 43.5 µM.
With `O=C1/C(=C/c2cccnc2)SC(=S)N1Cc1ccco1`, the TGI was 6.29 µM in the assay on MDA-N and 64.6 µM with T-47D breast.
For the compound `O=C1Cc2c(-c3ccccc3)cc(-c3ccccc3)nc2-c2ccccc2N1`, the TGI with T-47D breast was 38.4 µM.
Consider `C[C@@H](Nc1nc(N[C@H](C)C(F)(F)F)nc(-c2cccc(Cl)n2)n1)C(F)(F)F`, for which, in the assay with T-47D breast, the GI50 was 41.8 µM and the TGI was above 100 µM.
With `CCn1cnc(C[C@H](NC(=O)[C@H](CCCCNC(=O)Nc2cc(C(F)(F)F)cc(C(F)(F)F)c2)NC(=O)Nc2cc(C(F)(F)F)cc(C(F)(F)F)c2)C(=O)OC)c1`, in the assay with T-47D breast, the GI50 is 4.83 µM and the TGI is above 10 µM.
In the case of `CCCCCC/C=C/C#CCCCCCCCC(=O)O`, the TGI in the assay on MDA-N and in the assay with T-47D breast was above 100 µM throughout.
Consider `OCC1NC(COC2OC(CO)C(O)C(O)C2O)C(O)C(O)C1O` (configuration not stated), for which the TGI in the assay with MDA-N and with T-47D breast was above 100 µM throughout.
In the case of `Cc1cccc(C(C)(C)C)c1NC(=O)C(C#N)C1=C(Cl)C(=O)c2ccccc2C1=O` (configuration not stated), the TGI with DMS 273 small cell lung stood at 36.2 µM; in the assay with HOP-18 NSCLC it was 24.3 µM; in the assay on KM20L2 colon, 38.4 µM; in the assay with LXFL 529 NSCLC, 29.2 µM; in the assay on MDA-N, 27.4 µM; with T-47D breast, 26.1 µM. In the assay on XF 498 CNS, the TGI is 29.4 µM.
Turning to `CN1CCN(CCCOc2cccc3nc(Nc4cc(Cl)cc(Cl)c4)ccc23)CC1`, in the assay on T-47D breast, the GI50 is 1.79 µM and the TGI is 3.76 µM.
On the same counts, the results for `Oc1ccc(NC(=S)Nc2ccccc2)cc1` are above 100 µM and above 100 µM.
Regarding `C[C@@H](O)[C@@H](C)Oc1nc(Nc2ccc(S(=N)(=O)C3CC3)cc2)ncc1C(F)(F)F` (some centres not stated), in the assay on T-47D breast, the GI50 is 0.0386 µM and the TGI stood at 6.62 µM.
On to `O/N=C1/CCC/C1=C\c1ccccc1`, for which the TGI with DMS 273 small cell lung, with HOP-18 NSCLC, in the assay with KM20L2 colon, in the assay with LXFL 529 NSCLC and in the assay with XF 498 CNS was above 100 µM each time.
Consider `CC(C)C[C@H](CC(=O)O)C(=O)N[C@@H](Cc1c[nH]c2ccccc12)C(=O)N[C@@H](C)c1ccccc1`, for which, in the assay on T-47D breast, the GI50 is above 25 µM and the TGI was above 25 µM.
In the case of `O=C1OC(CC(=O)c2ccc(F)cc2)C(Cl)=C1Cl` (configuration not stated), the TGI is 44.6 µM in the assay on HOP-18 NSCLC, 31.9 µM in the assay on LXFL 529 NSCLC, above 100 µM with M19-MEL melanoma and 46.8 µM with XF 498 CNS.
Turning to `C[C@@H]1CC[C@H]2[C@@H](C)C(O)O[C@@H]3O[C@]4(C)CC[C@@H]1[C@]32OO4` (some centres not stated), the GI50 in the assay with T-47D breast is 0.285 µM.
As for `N#C/C(=C\c1ccc(O)c(O)c1)C(=O)NCc1ccc(C(F)(F)F)cc1`, in the assay with T-47D breast, the GI50 was 8.72 µM and the TGI came out at 59.8 µM.
Take `CCOC(=O)/C(=C/CC/C(C)=C/CC/C(C)=C/CCc1ccoc1)CC(=O)N1CCCCC1`: in the assay on T-47D breast, the GI50 is 2.37 µM and the TGI was 8.65 µM.
As for `CC(C)N(C(=O)C12C3C4C1C1C2C3C41C(=O)C(C)(C)C)C(C)C` (configuration not stated), the TGI with DMS 273 small cell lung, with KM20L2 colon, in the assay with LXFL 529 NSCLC, in the assay with M19-MEL melanoma and in the assay on XF 498 CNS was above 100 µM throughout.
With `Oc1ccc2ccccc2c1CCc1c(O)ccc2ccccc12`, the TGI worked out at 27.6 µM with MDA-N and 12.5 µM in the assay with T-47D breast.
In the case of `C/C(=N\Nc1ccccc1)c1sc(-c2nc(C)c(/C(C)=N/Nc3ccccc3)s2)nc1C`, the TGI was above 21.1 µM in the assay on DMS 273 small cell lung; above 96.6 µM in the assay on HOP-18 NSCLC; above 82 µM with LXFL 529 NSCLC; above 85.2 µM with M19-MEL melanoma; above 100 µM with XF 498 CNS.
